Experimental data reported in US5679638A, “Method for treating a tumor with a chemotherapeutic agent” (Biopure Corporation, priority 1993, dated 1997).

Assays:
[1] = system: intracranial 9L gliosarcoma; experiment: Life span of rats with intracranial 9L gliosarcoma; type: in vivo, rat (male Fischer 344); settings: for % Increased from Control (life span) / Survival Days: Table II; for % Increased from Control (life span) / Increase in life span with UPHS prior to the drug therapy: vs untreated control; for Survival Days: control 26 ± 2.2 days, CDDP 8 mg/kg day 7, BCNU 3 x 15, CTX or IFOS 3 x 100 mg/kg days 7, 9, 11, UPHS 8 ml/kg; for Significance of increase in life span, drug alone: 25% or more is therapeutically significant; for Effectiveness against intracranial 9L tumors: relative statement among BCNU, CTX, CDDP, IFOS
Procedure: (§1) The 9L gliosarcoma (9L) cells were obtained as a gift of 9L/SF gliosarcoma cells from Dr. Dennis Dean, University of California, San Francisco. These cells were maintained in culture in .varies.-MEM (Grand Island Biological Co., Grand Island, N.Y.) and supplemented with 10% fetal bovine serum (Sterile Systems, Inc., Logan, Utah) and with antibiotics. The 9L cells (4×10^4) in 10 μL of media without serum were implanted intracranially in male Fischer 344 rats (Taconic Farms, Germantown, N.Y.) weighing 200-250 gm on day 0. Each rat was anesthetized with sodium pentobarbital. A midline scalp incision was made and a hole was bored through the skull with 23 gauge needle at a point 2 mm lateral to the midline. The cell suspension was injected into the right frontal lobe at a depth of 3 mm from the dural surface. The needle was removed and the hole filled with dental cement. The scalp was sealed with a surgical clip. Two days later 9L cells (2×10^6) were implanted subcutaneously into the flank of each animal. When the tumors were approximately 100 mm^3 in volume, 7 days after tumor cell implantation, 8 ml/kg of UPHS was injected via the tail vein. After injecting the UPHS, administration of chemotherapeutic agents was initiated. […] BCNU therapy consisted of three 15 mg/kg BCNU doses administered by intraperitoneal injection days 7, 9 and 11. CTX and ifosfamide (IFOS) therapy consisted of three 100 mg/kg CTX or IFOS doses administered by intraperitoneal injection on days 7, 9 and 11. For the BCNU, CTX and IFOS therapies, UPHS was intravenously administered prior to each chemotherapeutic agent injection on days 7, 9 and 11. The IFOS was purchased from the Dana-Farber Cancer Institute. Survival of animals was monitored daily. Animals that were moribund or unable to reach food or water were killed by CO2 inhalation.
The effect of the treatments on the growth of the intracranial tumor was determined by the increase in life span of treated groups compared with the untreated controls. A percentage increase in life span of 25% or more is therapeutically significant.

[2] = system: subcutaneous 9L gliosarcoma; experiment: Subcutaneous 9L gliosarcoma tumor growth delay; type: in vivo, rat (male Fischer 344); settings: for Subcutaneous 9L Tumor Growth Delay, Mean Days: Table III, days to 500 mm^3 vs control (19.5 ± 0.5 days), CDDP 8 mg/kg day 7, BCNU 3 x 15, CTX or IFOS 3 x 100 mg/kg, UPHS 8 ml/kg; for Increase in tumor growth delay by prior administration of UPHS: UPHS + drug vs drug alone; for Effectiveness against subcutaneous 9L tumors: relative statement among BCNU, CTX, CDDP, IFOS
Procedure: as §1
The progress of each subcutaneous tumor was measured 3 times/week until it reached a volume of 500 mm^3. Tumor growth delay was calculated as the number of days for each individual tumor to reach 500 mm^3 compared with untreated controls. Each treatment group had 4 animals and the experiment was repeated twice. Days of tumor growth delay are the mean ±SE for the treatment group compared with the control.

[3] = system: Lewis lung carcinoma lung metastases; experiment: Lung metastases of Lewis lung carcinoma; type: in vivo, mouse (male C57BL); set-up: Lung Metastases: unit not given here
Procedure: (§2) The Lewis lung tumor was carried in male C57BL mice (Taconic Laboratories, Germantown, N.Y.). For the experiments, 2×10^6 tumor cells prepared from a brei of several stock tumors were implanted subctaneously into the legs of male mice aged 8-10 weeks. […] Animals bearing Lewis lung tumors were treated daily with intraperitoneal Mino (10 mg/kg), Diflun (15 mg/kg) or Sulin (15 mg/kg) on days 4-18 following tumor implantation. When the tumors had reached a volume of approximately 100 mm^3 (day 7 after tumor cell implantation), cytotoxic therapy was initiated.
Therapy consisted of treatment with an antitumor alkylating agent, an antitumor antimetabolite, a non-steroidal anti-inflammatory drug (NSAID) and/or UPHS. […] CTX therapy consisted of three successive 150 mg/kg CTX doses administered by intraperitoneal injections on days 7, 9 and 11. BCNU therapy consisted of three successive 15 mg/Kg BCNU doses administered by intraperitoneal injections on days 7, 9 and 11. Therapy with the antimetabolite 5-fluorouracil(5-FU) consisted of 4 successive 40 mg/kg 5-FU doses administered by intraperitoneal injections daily on days 7 to 11. The 5-FU was purchased from Sigma Chemical Co., St. Louis, Mo. Fourteen doses of 10 mg/kg of NSAID were administered daily by intraperitoneal injections on days 4 to 18. UPHS was injected into the tail vein in 8 ml/kg doses daily on days 7-11. […]

[4] = system: Lewis lung carcinoma; experiment: Lewis lung carcinoma growth delay; type: in vivo, mouse (male C57BL); settings: for Lewis lung carcinoma growth delay, Mean Days: NSAID days 4-18; for Increase of growth delay by addition of UPHS: drug + UPHS vs drug
Procedure: as §2
Therapy consisted of treatment with an antitumor alkylating agent, an antitumor antimetabolite, a non-steroidal anti-inflammatory drug (NSAID) and/or UPHS. […] CTX therapy consisted of three successive 150 mg/kg CTX doses administered by intraperitoneal injections on days 7, 9 and 11. BCNU therapy consisted of three successive 15 mg/Kg BCNU doses administered by intraperitoneal injections on days 7, 9 and 11. Therapy with the antimetabolite 5-fluorouracil(5-FU) consisted of 4 successive 40 mg/kg 5-FU doses administered by intraperitoneal injections daily on days 7 to 11. The 5-FU was purchased from Sigma Chemical Co., St. Louis, Mo. Fourteen doses of 10 mg/kg of NSAID were administered daily by intraperitoneal injections on days 4 to 18. UPHS was injected into the tail vein in 8 ml/kg doses daily on days 7-11.
The progress of each tumor was measured thrice weekly until it had reached a volume of 500 mm^3. Tumor growth delay was calculated as the number of days required for each treated tumor to reach a volume of 500 mm^3 as compared with untreated control tumors. Each treatment group comprised six animals and the experiment was repeated three times.
On the twentieth day after the subcutaneous tumor implantation, the delay in Lewis Lung Carcinoma tumor growth was evaluated. Tumor growth delay data is presented as the mean value ±SE calculated for the treatment group as compared with the control group.

[5] = WITH UPHS (8 ml/kg daily days 7-11), CDDP or PAM 10 mg/kg, CTX 3 x 150, BCNU 3 x 15, 5-FU 40 mg/kg
[6] = WITHOUT UPHS, CDDP or PAM 10 mg/kg day 7, CTX 3 x 150, BCNU 3 x 15 mg/kg days 7, 9, 11, 5-FU 40 mg/kg
[7] = intracranial (life span) and subcutaneous (growth delay) 9L tumors

Compound	% Increased from Control (life span) [1] [%]	Survival Days [1] [days]	Increase in life span with UPHS prior to the drug therapy [1] [%]	Significance of increase in life span, drug alone [1]	Increase in therapeutic response upon addition of UPHS ([1]; rat, in vivo, sc)	Effectiveness against intracranial 9L tumors [1]	Subcutaneous 9L Tumor Growth Delay, Mean Days [2] [days]	Increase in tumor growth delay by prior administration of UPHS [2] [fold]	Effectiveness against subcutaneous 9L tumors [2]	Lung Metastases ([3]; WITH UPHS)	Lung Metastases (% Large) ([3]; WITH UPHS) [%]	Lung Metastases ([3]; WITHOUT UPHS)	Lung Metastases (% Large) ([3]; WITHOUT UPHS) [%]	Lewis lung carcinoma growth delay, Mean Days [4, 5] [days]	Lewis lung carcinoma growth delay, Mean Days [4, 6] [days]	Increase of growth delay by addition of UPHS [4]	Increase in therapeutic response upon addition of UPHS [1, 7]	Effect of UPHS on tumor growth delay produced by drug ([2]; UPHS prior to single dose of CDDP)	Tumor growth delay relative to other drugs ([4]; vs CDDP, PAM, BCNU or 5-FU)
O=NN(CCCl)C(=O)NCCCl [BCNU, N,N-bis(2-chloroethyl)-N-nitrosourea]	22	31.6	38	did not reach significance	improved to a greater degree, as determined by increase in life span, against the intracranial tumor than against the subcutaneous tumor	moderately effective against the intracranial 9L tumors	5.8 ± 0.5	1.3	least effective against subcutaneously growing 9L tumors	9	61	15.5	53	5.3 ± 0.5	3.6 ± 0.4	also enhanced, to a lesser degree	–	–	–
N.N.[Cl][Pt][Cl] [CDDP, cis-diaminodichloroplatinum(II)]	29	33.6	46	significant increase in life span	–	very effective against both subcutaneous and intracranial 9L tumors	9.4 ± 0.8	–	very effective against both subcutaneous and intracranial 9L tumors	13	40	13	58	5.7 ± 0.4	4.5 ± 0.3	also enhanced, to a lesser degree	improved to a greater degree, as determined by increase in life span, against the intracranial tumor than against the subcutaneous tumor	no substantial effect on the tumor growth delay	–
O=P1(N(CCCl)CCCl)NCCCO1 (centres unmarked) [CTX, Cyclophosphamide]	20	31.3	43	did not reach significance	–	least effective treatments for intracranial 9L tumors	9.1 ± 0.7	1.5	very effective treatments for subcutaneously growing 9L tumors	8	40	12	40	43.1 ± 2.9	21.5 ± 1.7	more than two-fold	greatest increases in therapeutic response upon addition of UPHS	–	substantially longer than that resulting from CDDP, PAM, BCNU or 5-FU
N[C@@H](Cc1ccc(N(CCCl)CCCl)cc1)C(=O)O [PAM, Melphalan]	–	–	–	–	–	–	–	–	–	10	50	13	48	6.8 ± 0.4	2.7 ± 0.3	more than two-fold	–	–	–
